SMILES strings stand for the structures.

The assay concerns the target T1, Polyunsaturated fatty acid 5-lipoxygenase (Homo sapiens, UniProt P09917).
T1 sequence (P09917 whole entry): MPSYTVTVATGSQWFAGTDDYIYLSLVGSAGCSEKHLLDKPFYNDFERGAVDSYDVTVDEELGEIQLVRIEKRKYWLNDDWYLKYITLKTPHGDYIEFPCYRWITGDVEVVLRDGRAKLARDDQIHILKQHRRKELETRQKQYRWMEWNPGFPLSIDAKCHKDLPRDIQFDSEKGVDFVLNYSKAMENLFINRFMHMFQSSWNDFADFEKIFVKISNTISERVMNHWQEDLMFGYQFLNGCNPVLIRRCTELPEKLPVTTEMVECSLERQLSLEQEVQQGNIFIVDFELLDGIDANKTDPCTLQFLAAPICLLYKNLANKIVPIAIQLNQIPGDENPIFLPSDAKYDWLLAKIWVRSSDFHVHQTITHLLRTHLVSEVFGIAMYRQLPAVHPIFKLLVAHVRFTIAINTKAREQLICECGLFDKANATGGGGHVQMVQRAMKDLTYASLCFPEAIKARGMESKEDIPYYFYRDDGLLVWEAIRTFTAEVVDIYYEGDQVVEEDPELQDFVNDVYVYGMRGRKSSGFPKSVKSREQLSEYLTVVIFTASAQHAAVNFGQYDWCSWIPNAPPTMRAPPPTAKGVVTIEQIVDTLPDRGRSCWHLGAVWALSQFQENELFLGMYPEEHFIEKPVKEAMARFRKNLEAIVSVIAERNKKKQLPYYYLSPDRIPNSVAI
Kind of assay: Inhibition of LT biosynthesis in vitro using A-23187-stimulated human whole blood. Type of assay: functional, tissue-based.
In turn, `COC1(c2cc(Sc3ccc(/C(C)=N/O)cc3)cc(F)c2C)CCOCC1` gave an IC50 of 20 nM.

In the case of `CC1(C)OCC(C)(c2cccc(OCc3ccc4ccccc4c3)c2)O1` (stereo unspecified), 350 nM corresponded to half-maximal inhibition (IC50).

`CN(c1ccc(Sc2cc(C3(C)COC(C)(C)O3)cs2)cc1)S(C)(=O)=O` (stereo unspecified) returned an IC50 of 160 nM.

The molecule `CO/N=C(\C)c1ccc(Sc2cc(C3(C)COC(C)(C)O3)cs2)cc1` (stereo unspecified) came in with an IC50 of 270 nM.

With `C/C(=N\O)c1ccc(Sc2cc(C3(C)COC(C)(C)O3)cs2)cc1` (stereo unspecified), half-maximal inhibition (IC50) was put at 40 nM.

Take `CC(=O)c1ccc(Sc2cc(C3(C)COC(C)(C)O3)cs2)cc1` (stereo unspecified): the IC50 was found to be 600 nM.

On to `CN(C)S(=O)(=O)c1ccc(Sc2cc(C3(C)COC(C)(C)O3)cs2)cc1` (stereo unspecified), for which the IC50 amounted to 210 nM.

The molecule `CN1C(=O)CCc2ccc(Sc3cc(C4(C)COC(C)(C)O4)cs3)cc21` (stereo unspecified) returned an IC50 of 100 nM.

As for `COC1(c2cc(OCc3ccc4c(ccc(=O)n4C)c3)cc(F)c2C)CCOCC1`, the half-maximal inhibitory concentration (IC50) amounted to 20 nM.

The molecule `CC(=O)N(C)c1ccc(Sc2cc(C3(C)COC(C)(C)O3)cs2)cc1` (stereo unspecified) came in with an IC50 of 150 nM.

In turn, `C/C(=N\OCC#N)c1ccc(S(=O)(=O)c2cc([C@@]3(C)COC(C)(C)O3)cs2)cc1` yielded an IC50 of 50 nM.

Molecule `CC(=O)N(C)c1ccc(Sc2cc([C@]3(C)COC(C)(C)O3)cs2)cc1` came in with an IC50 of 1180 nM.

`C/C(=N\O)c1ccc(S(=O)(=O)c2ncc([C@@]3(C)COC(C)(C)O3)s2)cc1` displayed an IC50 of 200 nM.

For the molecule `C/C(=N\O)c1ccc(S(=O)(=O)c2cc([C@@]3(C)COC(C)(C)O3)cs2)cc1`, the IC50 was 90 nM.

`CC(=O)c1ccc(Sc2ncc([C@@]3(C)COC(C)(C)O3)s2)cc1` displayed a 50% inhibitory concentration (IC50) of 390 nM.

`COC1(c2cc(Sc3ccc4c(c3)OCC(=O)N4C)cc(F)c2C)CCOCC1`: the 50% inhibitory concentration (IC50) came out at 40 nM.

`COC1(c2cc(S(=O)(=O)c3ccc4c(ccc(=O)n4C)c3)ccc2C)CCOCC1` displayed a half-inhibitory concentration (IC50) of 40 nM.

The molecule `COC1(c2cc(Sc3ccc4c(c3)CCC(=O)N4C)cc(F)c2C)CCOCC1` returned an IC50 of 60 nM.

For the molecule `C/C(=N\OCC#N)c1ccc(Sc2cc([C@@]3(C)COC(C)(C)O3)cs2)cc1`, the concentration for half-maximal inhibition (IC50) was determined as 10 nM.

As to `CC(=O)N(C)c1ccc(Sc2cc([C@@]3(C)COC(C)(C)O3)cs2)cc1`, the midpoint of inhibition, the IC50, lay at 40 nM.

For the molecule `C/C(=N\O)c1ccc(Sc2cc([C@@]3(C)COC(C)(C)O3)cs2)cc1`, inhibition was half-maximal at 40 nM (IC50).

Consider `COC1(c2sc(Sc3ccc4c(c3)CCC(=O)N4C)nc2C)CCOCC1`, for which the 50% inhibitory concentration (IC50) turned out to be 140 nM.

`C/C(=N\OCCN1CCOCC1)c1ccc(Sc2cc([C@@]3(C)COC(C)(C)O3)cs2)cc1` showed a 50% inhibitory concentration (IC50) of 1510 nM.

`C/C(=N\OCC#N)c1ccc(S(=O)(=O)c2ncc([C@@]3(C)COC(C)(C)O3)s2)cc1` displayed a 50% inhibitory concentration (IC50) of 120 nM.

The molecule `CN1C(=O)COc2ccc(Sc3cc(C4(C)COC(C)(C)O4)cs3)cc21` (stereo unspecified) yielded an IC50 of 40 nM.

In turn, `CC(=O)N(C)c1ccc(Sc2ncc([C@]3(C)COC(C)(C)O3)s2)cc1` yielded an IC50 of 6210 nM.

In turn, `COC1(c2cc(Sc3ccc(N(C)C(C)=O)cc3)cc(F)c2C)CCOCC1` had an IC50 of 30 nM.

`COC1(c2cc(Sc3ccc4c(c3)CCC(=O)N4C)sc2C)CCOCC1` showed an IC50 of 20 nM.

As for `C/C(=N\O)c1ccc(Sc2ncc([C@@]3(C)COC(C)(C)O3)s2)cc1`, the IC50 amounted to 130 nM.

In turn, `CC(=O)N(C)c1ccc(S(=O)(=O)c2cc(C3(C)COC(C)(C)O3)cs2)cc1` (stereo unspecified) came in with an IC50 of 840 nM.

Take `C/C(=N\OCC#N)c1ccc(Sc2ncc([C@@]3(C)COC(C)(C)O3)s2)cc1`: half-maximal inhibition (IC50) required 30 nM.

The IC50 is the concentration that gives 50% inhibition. Read a low IC50 as greater potency in that assay.

For the origin of these results see ChEMBL document CHEMBL1128582, “Chiral dioxolane inhibitors of leukotriene biosynthesis: structure-activity relationships and syntheses using asymmetric dihydroxylation” (J Med Chem, 1995).
